Experimental data reported in patent publication US7074925B1, “N-substituted derivatives of 5-oxyiminobarbituric acid” (priority 1998, dated 2006).
Values after ≈ are worked out from the molar mass of the structure shown.

What was measured:
[1] = Psychostimulating activity, symptom score; assay type: in vivo, mice; conditions: tested substances perorally 300 mg/kg, one hour after; maximum 30 points, more than 12 significant
[2] = tested on: cholesterol synthesis by human's fibroblasts; assay: Inhibition of cholesterol synthesis in human's fibroblasts; assay type: cell-based; conditions: 400 ng/ml, [2-14C] acetate incorporation, 4 hours
Protocol: Influence of the substance (400 ng/ml) on cholesterol synthesis by human's fibroblasts was investigated. […] The spots corresponding to cholesterol were removed from a plate to a vial and then were coated with scintillation liquid; after that radioactivity was measured expressed as pulse/min/mg of cell protein. Lovastatin taken in the same concentration as the tested substance was utilized as a reference agent.

[3] = tested on: Human's platelet aggregation; assay: Antiaggregational properties, ADP-induced platelet aggregation; assay type: cell-based; conditions: 100 μg/ml, ADP […], platelet-enriched human plasma
Source text: Human's platelet aggregation was investigated in plasma of healthy 50±3 years donors that was enriched by thrombocytes, by means of aggregometer FRM-1. […] Magnitude of a maximum non-reversible platelet aggregation in the control samples (solvent) was adopted as 100%, and that in tested samples was counted as the percentage compared to the control.

[4] = Antioxidant action, riboflavine chemiluminescence; assay type: biochemical; conditions: solvent water, phosphate buffer pH 9.1
Source text: To assess a general antioxidant activity the method of riboflavine chemiluminescence was used. The test substance was introduced into a system consisted of phosphate buffer (pH 9.1), solution of riboflavine, and solution of bivalent iron sulfate. Chemiluminescence was initiated by 0.1% solution of hydrogen peroxide and registered by means of luminometer. […] Ascorbic acid was used as a reference agent.

C.trachomatis D323 = assay: Action on Chlamydia trachomatis in cell culture; assay type: cell-based; conditions: 100 mg/l
Protocol: The antimicrobial activity of the claimed compounds was studied relative to C.trachomatis […], which is a standard strain from the collection of the chair of microbiology of St. Petersburg State Pavlov Medical University. […] Cell cultures McCoy and L929 obtained from the Institute of Cytology of RAS were used in this work. Cells were grown in flasks made of neutral glass in the medium RPMI-1640 with the addition of 10% of fetal calf serum. The test was performed in glass (non-toxic) flat-bottom flasks with cover glasses. The cells were introduced into the medium in the final concentration of […]. […] Simultaneously, tested compounds in a final concentration of 100 mg/l were added to the cells. The sample was centrifuged at 2400 G during 60 minutes at room temperature and incubated at 37° C. for 2 hours. […] The samples were doubled using the medium without cycloheximide so as to exclude its effect on the investigated compounds. The samples were incubated in a CO2-incubator for 48 hours. […] The effect of the action of substance was determined by analysis of the monolayer state and number of cells with CPI when compared with the control (cell culture infected with C.trachomatis […]); in doing so, the number of unchanged cells, that were counted in 100 visual fields obtained using the special net of the microscope eyepiece, was taken into consideration. […] Control of cell culture: morphology of cells and state of monolayer correspond to the given type of the cells; control of chlamydia growth in the cell culture: presence of CPI in the monolayer; control of action of standard antimicrobial agent: reduction of number of CPI in the monolayer as compared to the previous control; control of toxicity of the claimed compounds: toxicity is absent; control of action of solvents: toxic action on cells is absent.

[5] = Hepatoprotective activity, CCl4 liver damage (AlAT); assay type: in vivo, rats
Protocol: CCl4 dissolved in 50% olive oil (1 ml/kg) was subcutaneously administrated to rats. Test substances were administrated perorally in a dose of 20 mg/kg 30 minutes before and 7 hours after the CCL4 administration. The activity of alanine-aminotranspherase (AlAT), which is a marker enzyme of liver parenchyma damage, was assessed twenty-four hours later. Reducing of enzyme amount by more than 30% relative to the control group was considered as evidence of hepatoprotective properties of the substance.
Silymarin in a dose of 100 mg/kg was used as a reference agent.

[6] = tested on: Herpes virus of the type I (HSV-I/Leningrad/248/88); assay: Effect on Herpes virus, cytopathogenic action on Vero cells; assay type: cell-based, Herpes Simplex virus; conditions: compound 100 μg/ml; for Quantity of the unchanged cells (number of cells in 100 visual fields): Vero cells, 36 hours, cell control 10000; for percentage of protection of cells from virus: compared to the control of cell culture
Protocol: An antiviral activity was determined with respect to Herpes virus of the type I (HSV-I/Leningrad/248/88) by means of commonly accepted method. Viruses were grown on a continuous culture of Vero cells that have been received from the Bank of Cell Cultures of the Institute of Cytology of the Russian Academy of Science.
A virus in a final concentration of […] and the claimed compounds dissolved in DMSO in final concentrations of 100, 10 and 1 mg/l were added to cells that were grown on the RPMI-1640 medium with 10% fetal calf serum and placed into wells of the 96-well plate. 5 separate wells were used for each of tested concentrations of an agent. The plate was incubated during 60 minutes at 38° C. in a CO2-incubator. After the incubation, the virus was removed and then a fresh medium containing claimed compounds in used concentrations was again introduced.
Results were evaluated basing on presence of cytopathogenic action on the cells after 36 hours of incubation at 38° C. in the CO2-incubator.
The next controls were used in the experiment: • 1. Control of cell culture (capability to grow properly) • 2. Control of the virus (evaluation of capability for reproduction) • 3. Control of an antiviral activity of an antiviral drug Acyclovir • 4. Control of compounds (toxicity of compounds) • 5. Control of a solvent (DMSO) for toxicity.
To estimate a cytopathic action of the virus, a quantity of the unchanged cells was calculated in 100 visual fields formed by a special net of an eyepiece of the inverted microscope.

[7] = Hypoglycemic activity after glucose load; assay type: in vivo, mice; conditions: 100 mg/kg perorally, glucose 1000 mg/kg s.c.; for Glucose in blood: after one hour, glucose control 8.26 ± 0.50
Protocol: Test substance (100 mg/kg) was perorally administrated to fasted mice, and, immediately after that, solution of glucose (1000 mg/kg) was administrated subcutaneously. Glucose content in blood was determined in a hour by the orthotoluidine method. Reducing of glucose level by more than 20% relative to control animals indicated hypoglycemic properties. Glibenclamide (I mg/kg) was utilized as a reference agent.

[8] = Antiulcerous action, water immersion stress with immobilization; assay type: in vivo, rats; conditions: 20 mg/kg perorally; for % of animals with ulcers: rats, 4 hours stress, control 100; for % of reducing number of ulcers / % of reducing ulceration index: versus control; for Number of lesions: control 8.3 ± 2.5; for ulceration index: control 10.5 ± 5.7
Protocol: Antiulcerous activity of substances was tested on a model of experimental water immersion stress with immobilization. […] After that, gastric mucous membrane was investigated, number and sizes of ulcers were counted, ulceration index was determined (an average sum of ulcer lengths per one animal in a group).

[9] = Psychodepressive activity, behavioral score; assay type: in vivo, mice; conditions: per oral 300 mg/kg, one hour after dosing; total 60, less than 40 significant
Protocol: Each parameter scores 2 points for an each mouse that had unchanged behavior. The total point sum was 60 (2×10×3 mice). Reducing score to less than 40 one hour after dosing with a substance per oral (300 mg/kg) denoted significant behavioral depression. Haloperidol was utilized as a reference agent.

[10] = Determination of maximal tolerable dose; assay type: in vivo; conditions: oral administration, mice, observed 72 hours; 300 was the maximally utilized one
Protocol: Tested substance was introduced perorally (in dose of 300 mg/kg) through a gastric tube or intraperitoneally (in dose of 100 mg/kg) to no-breed white mice with mass 18-20 g (each tested group consisted of 3 males and 3 females). Then the mouse state was observed during 72 hours. Absence of symptoms characteristic of toxic effects, or absence of animal death during the given time allows to make a conclusion that the toxicity of the test substance is low. If acute toxicity effects are observed, the dose is reduced to find maximal tolerable dose.

[11] = tested on: primary culture of human lymphocytes (IFN-α production); assay: Interferon-inducing activity in primary culture of human lymphocytes; assay type: cell-based
Protocol: Interferon synthesis induction caused by the claimed compounds was conducted on a primary culture of human lymphocytes (it is these cells in a human organism that are the main producers of interferons). To obtain lymphocyte culture, fresh blood (within 12 hours after sampling) from healthy donors (not of group II) was used. To separate lymphocytes, heparinized blood obtained from healthy donor was centrifuged in a density gradient of ficoll-verografin of […] in order to extract a fraction of immunocompetent cells. This fraction was selected and diluted with the nutrient medium RPMI-1640, containing 5% of fetal calf serum, 0.3 mg/ml of L-glutamin, 100 un/ml of penicillin, and […] of streptomycin. The concentration of lymphocytes was considered after dying them with methylene blue and calculation of cell number in Goryaev chamber. Initial solutions of the claimed compounds were diluted with the nutrient medium RPMI-1640 so that the final concentrations of the compounds, which were obtained after introduction of lymphocyte suspension, constituted the raw: 100 μg/ml, 10 μg/ml, 1 μg/ml. The final concentration of lymphocytes in the induction mixture was 3×10^6 cell/ml.
In parallels to the test samples the following controls were done: • 1). Control of spontaneous production of interferons (IFN) by lymphocytes. • 2). […] Control of spontaneous production of interferons in presence of DMSO taken in an amount corresponding to the test samples.
Control and test samples were incubated for 24 hours at the temperature of 37° C. After incubation, the samples were centrifuged at 2,000 G to deposit cell elements, and IFN-containing supernatant was separate out of samples; then the supernatant was analyzed for the quantitative content of IFN. Cell deposition was resuspended in the previous volume of nutrient medium, coloured with vital dye trypan blue, and cell number was counted in the Goryaev chamber (as described above) to determine cytotoxic action of the compounds. The quantitative determination of content of IFN in control and test samples was conducted using the immunoenzyme test system Pro Con IF2 Plus, that is intended for determination of IFN-α, which is produced by TOO “Protein contour”. The solid-phase immunoenzyme method, utilizing horse radish peroxidase as an indicator enzyme, was used to determine the quantity of interferon in the samples. Activity of the bonded peroxidase was measured using an automatic photometer for microplates with a microprocessor at the wavelength of 450 nm.
Based on the obtained results, a calibrating curve was formed, which allows to obtain data expressed in international units (IU) of activity, using the microprocessor of the automatic photometer. The results of the analysis are expressed in IU of activity of IFN per ml in the given induction system, which contains 3×10^4 lymphocyte/ml. Each test and control point was investigated in four parallels.
Controls of immunoenzyme reaction: • 1. Control of DMSO with a nutrient medium. • 2. Control of system components (according to an instruction).
The obtained data were undergone a statistical analysis using t-criterion, and calculation of the confident interval of probability at p=0.05 was carried out. Coincidence of results in the parallel tests was analyzed.

Row | SMILES | % of inhibition of platelet aggregation [3] [%] | IC50, suppressing chemiluminescence by 50% [4] [µg/mL] | Quantity of the unchanged cells (number of cells in 100 visual fields) [6] | percentage of protection of cells from virus [6] | % change of glucose relative to glucose control [7] [%] | Glucose in blood [7] [mmol/L] | % of animals with ulcers [8] [%] | % of reducing number of ulcers [8] [%] | % of reducing ulceration index [8] [%] | Number of lesions [8] | ulceration index [8] | also measured
1 | CN1CCc2cccc3c2[C@H]1Cc1ccc(O)c(O)c1-3 [Apomorphine, reference compound] |  |  |  |  |  |  |  |  |  |  |  | Number of points (psychostimulation) [1]: 19
2 | CC[C@H](C)C(=O)O[C@H]1C[C@@H](C)C=C2C=C[C@H](C)[C@H](CC[C@@H]3C[C@@H](O)CC(=O)O3)[C@H]21 [Lovastatin, reference compound] |  |  |  |  |  |  |  |  |  |  |  | inhibition at 0.4 µg/mL ([2]; Homo sapiens, Fibroblast): 76.4%
3 | O=C1NC(=O)N(c2ccc(F)cc2)C(=O)C1=NO [XXVII] | 24.3 ± 4.8 | 13.00 (≈ 51.8 µM) | 6500 | (65%) | −12 | 7.26 ± 0.41 | 67 | −79 | −88 | 1.7 ± 1.3 | 1.3 ± 1.0 | percentage of cell protection from infection (C.trachomatis D323): (65%); Number of unchanged cells (C.trachomatis D323; 48 hours, counted in 100 visual fields, cell control 8.000, infected cells 6.000): 7.300; AlAT ([5]; 20 mg/kg perorally 30 minutes before and 7 hours after CCl4, 24 hours, CCl4 control 0.83 ± 0.21, intact 0.27 ± 0.04): 0.42 ± 0.08 mmol/L/h; % of reducing AlAT ([5]; 20 mg/kg perorally, relative to CCl4 control): −49%; Point number (behavioral depression) [9]: 31
4 | O=C1NC(=O)N(c2cccc(C(F)(F)F)c2)C(=O)C1=NO [XXXII] | 64.3 ± 6.2 | 6.40 (≈ 21.2 µM) | 5000 | (50%) | −14 | 7.10 ± 0.28 | 100 | −52 | −64 | 4.0 ± 1.3 | 3.8 ± 1.5 | Maximal tolerable dose, concentration of test substances [10]: 300 mg/kg; Content of IFN in induction mixture after 24-hour incubation ([11]; substance 1 mg/l): 12.5 ± 1.0 IU/3 × 10^4 lymph./ml; Content of IFN in induction mixture after 24-hour incubation ([11]; substance 10 mg/l): 77.5 ± 1.5 IU/3 × 10^4 lymph./ml; Content of IFN in induction mixture after 24-hour incubation ([11]; substance 100 mg/l): 126.5 ± 1.6 IU/3 × 10^4 lymph./ml; % of inhibition of cholesterol synthesis [2]: 23.5%
